Results on 14 compounds are retold here after PMC11640419, “New Synthetic Analogs of Natural 5Z,9Z-Dienoic Acids—Hybrid Molecules Based on Oleanolic Acid: Synthesis and Study of Antitumor Activity” (Cancers, 2024).

Holding throughout (format): cell-based, human
Series [1] in a line: Cytotoxicity assay (7-AAD, flow cytometry). As to conditions: human, Jurkat cells; Jurkat, 24 h incubation. Here is the method: The human cell lines Jurkat, K562, U937, and HEK293 were obtained from the European Collection of Authenticated Cell Cultures (ECACC) and subsequently cultured in accordance with established standard protocols and sterile techniques. […] Subsequently, the cells were seeded into 24-well plates at a density of 5 × 10^4 cells per well and incubated for 12 h (Jurkat, K562, U937) and 24 h (HEK293).
The viability of the cells was evaluated through the utilization of the 7-AAD (7-aminoactinomycin D) dye (eBioscience™, San Diego, CA, USA). Following a 24 h incubation period with the test substances, the cells were washed with phosphate-salt buffer (PBS) and centrifuged at 400× g for five minutes. […] Subsequently, all cell samples were subjected to analysis on a NovoCyte Penteon flow cytometer (Agilent, Santa Clara, CA, USA).
A general note: A flow cytometer gives signals particle by particle.

Series [2] can be described thus: Cytotoxicity assay (7-AAD, flow cytometry). As to conditions: human. As to the method: The human cell lines Jurkat, K562, U937, and HEK293 were obtained from the European Collection of Authenticated Cell Cultures (ECACC) and subsequently cultured in accordance with established standard protocols and sterile techniques. The cells were maintained in RPMI 1640 (for Jurkat, K562, and U937) or DMEM (for HEK293) medium, both of which were supplemented with […], 10% FBS (Sigma, Kanagawa, Japan), and 100 units/mL penicillin-streptomycin (Sigma). Subsequently, the cells were seeded into 24-well plates at a density of 5 × 10^4 cells per well and incubated for 12 h (Jurkat, K562, U937) and 24 h (HEK293).
The viability of the cells was evaluated through the utilization of the 7-AAD (7-aminoactinomycin D) dye (eBioscience™, San Diego, CA, USA). Following a 24 h incubation period with the test substances, the cells were washed with phosphate-salt buffer (PBS) and centrifuged at 400× g for five minutes. The precipitate was resuspended in 200 μL of flow cytometry buffer (PBS without calcium and magnesium, 2.5% FBS) and incubated with a 1 mM 7-AAD dye solution for 15 min in the dark at room temperature. Subsequently, all cell samples were subjected to analysis on a NovoCyte Penteon flow cytometer (Agilent, Santa Clara, CA, USA).

For series [3], the system named is Jurkat cells. Put plainly: MILLIPLEX MAP 7-plex DNA Damage/Genotoxicity Magnetic Bead Kit (Luminex). The conditions noted are these: 6 h, at CC50 (anisomycin at IC50 0.192 μmol/L). The text has this: (§1) In this study, we employed Luminex technology (MILLIPLEX® MAP 7-plex DNA Damage/Genotoxicity Magnetic Bead Kit and MILLIPLEX® MAP Early Apoptosis 7-plex Magnetic Bead Kit) to analyze protein analytes in Jurkat cell lysates. […] The Luminex xMAP intracellular protein assay is a multiplex multiparameter assay that employs a multiplex of fluorescent-labeled antibodies and magnetic particles to enhance the sensitivity, dynamic range, and accuracy of the analytical method. Luminex technology is employed to identify the proteins of interest present in each well. The mean fluorescence intensity (MFI) of each measured protein is then converted to its concentration (pg·mL^−1) using specialized software and standard curves.
(§2) The test substances were incubated with the cells at two concentrations, […], for a period of six hours. […] Following exposure, approximately 1 × 10⁶ cells from each well were transferred to 0.5-mL tubes (Eppendorf, Hamburg, Germany) and washed with PBS. Subsequently, the PBS was removed, 10 μL of lysis buffer (Cell Signaling Buffer and Detection Kit, Luminex, Austin, TX, USA) supplemented with 2 × protease and phosphatase inhibitors (Luminex, USA) was added, and the mixture was shaken for 30 s. A cocktail of fluorescence-encoded magnetic bead microspheres (MagPlex®, Luminex, USA) was resuspended and treated with ultrasound. Subsequently, 70 μL of this cocktail, 70 μL of protein standard, and 70 μL of the test sample were added to the wells of a 96-well microplate and incubated for 2 h at room temperature with stirring on an orbital shaker at 700–850 rpm. A magnetic plate was firmly attached to the bottom of a 96-well plate, and all wells were washed three times with 100 μL of wash buffer (Cell Signaling Buffer and Detection Kit, Luminex, USA) added to each well to remove unbound particles. Subsequently, 50 μL of […] to each well, and the samples were incubated for one hour at 4 °C on an orbital shaker set at 700–850 rpm. Subsequently, the samples were washed once more to remove any unbound antibodies. Afterwards, 70 μL of streptavidin-phycoerythrin (streptavidin-PE) (Luminex, USA) was added to each well and incubated for 30 min at room temperature on a shaker at 600 rpm. Subsequently, the samples were washed with streptavidin-PE and resuspended in 100 μL of wash buffer for a period of 2 min on a shaker at 800 rpm. The data were analyzed using the Milliplex Analyst 5.1 software (EMD Millipore, Billerica, MA, USA).

Series [4] relates to Jurkat cells. Put plainly: MILLIPLEX MAP Early Apoptosis 7-plex Magnetic Bead Kit (Luminex). The conditions noted are these: 6 h, at CC50 (anisomycin at IC50 0.192 μmol/L).
Text: as §1, §2

Where [5] appears, read: HEK293 cells, HEK293, 24 h incubation.
The mark [6] stands for this setting: K562 cells, K562, 24 h incubation.
The mark [7] stands for this setting: U937 cells, U937, 24 h incubation.

As to `CC[C@@]1(O)C(=O)OCc2c1cc1n(c2=O)Cc2cc3ccccc3nc2-1` [CPT, camptothecin, reference compound], the CC50 at 24 h turned out to be 0.588 ± 0.0462 µM in series [1], 0.692 ± 0.0536 µM in series [2] (setting [5]), 0.595 ± 0.0544 µM in series [2] (setting [6]) and 0.522 ± 0.0444 µM in series [2] (setting [7]). In addition, the ATR protein level in the series on Jurkat cells [3] (ATR (total)) was 263 % of control. The Chk1 protein level in the series with Jurkat cells [3] (CHK1 (S345)) was 52 % of control. For the same compound, in the series with Jurkat cells [3] (CHK2 (T68)), the Chk2 protein level was 5800 % of control. For the same compound, the H2A.X protein level in the series on Jurkat cells [3] (H2AX (S139)) is listed as 957 % of control. For the same compound, in the series on Jurkat cells [3] (MDM2 (total)), the MDM2 protein level is 1417 % of control. In addition, the p21 protein level in the series on Jurkat cells [3] (p21 (total)) is recorded as 170654 % of control. Also, the p53 protein level was 17285 % of control with Jurkat cells [3] (p53 (S15), genotoxicity panel) and 132 % of control with Jurkat cells [4] (p53 (S46), apoptosis panel). The Akt protein level with Jurkat cells [4] (AKT/PKB (S473)) was 196 % of control. Besides, the Bad protein level with Jurkat cells [4] (BAD (S112)) was 516 % of control. Further, the Bcl-2 protein level in the series with Jurkat cells [4] (BCL-2 (S70)) is 580 % of control. Besides, the JNK protein level in the series with Jurkat cells [4] (JNK/SAPK1 (T183/Y185)) is recorded as 141 % of control. Further, in the series with Jurkat cells [4] (activated caspase-8), the “Casp 8 protein level” value is recorded as 209 % of control. Besides, in the series on Jurkat cells [4] (activated caspase-9), the Casp9 protein level is 10289 % of control.
Turning to `Cc1c(NC(=O)[C@]23CCC(C)(C)CC2C2=CCC4[C@@]5(C)CC[C@H](OC(=O)CCC/C=C\CC/C=C\CCCC(=O)O)C(C)(C)C5CC[C@@]4(C)[C@]2(C)CC3)c(=O)n(-c2ccccc2)n1C` (stereo partly shown) [compound 9b], the CC50 at 24 h in series [1] stood at 6.11 ± 0.56 µM; in series [2] (setting [5]), 21.4 ± 2.33 µM; in series [2] (setting [6]) it was 5.76 ± 0.69 µM; in series [2] (setting [7]) it was 4.86 ± 0.42 µM.
For `CC(=O)O[C@H]1CC[C@@]2(C)C(CC[C@]3(C)C2CC=C2C4CC(C)(C)CC[C@]4(C(=O)Nc4cccc5cccnc45)CC[C@]23C)C1(C)C` (stereo partly shown) [compound 7i], the CC50 at 24 h in series [1] worked out at 153 ± 13.9 µM; in series [2] (setting [5]), 456 ± 42.7 µM; in series [2] (setting [6]), 133 ± 12.9 µM; in series [2] (setting [7]), 122 ± 12.8 µM.
For `CC1(C)CC[C@]2(C(=O)NC34CC5CC(CC(C5)C3)C4)CC[C@]3(C)C(=CCC4[C@@]5(C)CC[C@H](OC(=O)CCC/C=C\CC/C=C\CCCC(=O)O)C(C)(C)C5CC[C@]43C)C2C1` (stereo partly shown) [compound 9c], the CC50 at 24 h in series [1] amounted to 54.4 ± 5.88 µM; in series [2] (setting [5]), 167 ± 15.5 µM; in series [2] (setting [6]) it was 49.2 ± 5.01 µM; in series [2] (setting [7]) it was 29.4 ± 3.18 µM.
For `CC1(C)CC[C@]2(C(=O)NC34CC5CC(CC(C5)C3)C4)CC[C@]3(C)C(=CCC4[C@@]5(C)CC[C@H](O)C(C)(C)C5CC[C@]43C)C2C1` (stereo partly shown) [compound 8c], in that order: 115 ± 12.1 µM, 414 ± 39.5 µM, 94.7 ± 8.68 µM and 57.6 ± 6.49 µM.
In the case of `Cc1cc(NC(=O)[C@]23CCC(C)(C)CC2C2=CCC4[C@@]5(C)CC[C@H](O)C(C)(C)C5CC[C@@]4(C)[C@]2(C)CC3)no1` (stereo partly shown) [compound 8h], the CC50 at 24 h in series [1] worked out at 179 ± 17.1 µM; in series [2] (setting [5]), 598 ± 59 µM; in series [2] (setting [6]), 161 ± 16.4 µM; in series [2] (setting [7]) it was 155 ± 15.2 µM.
For `CC1(C)CC[C@]2(C(=O)NCc3cccs3)CC[C@]3(C)C(=CCC4[C@@]5(C)CC[C@H](OC(=O)CCC/C=C\CC/C=C\CCCC(=O)O)C(C)(C)C5CC[C@]43C)C2C1` (stereo partly shown) [compound 9e], in that order: 76.3 ± 7.25 µM, 195 ± 17.9 µM, 69.8 ± 6.99 µM and 56.4 ± 5.11 µM.
Turning to `CC1(C)CC[C@]2(C(=O)Nc3nccs3)CC[C@]3(C)C(=CCC4[C@@]5(C)CC[C@H](OC(=O)CCC/C=C\CC/C=C\CCCC(=O)O)C(C)(C)C5CC[C@]43C)C2C1` (stereo partly shown) [compound 9f], the CC50 at 24 h in series [1] was 96.7 ± 9.18 µM; in series [2] (setting [5]) it was 205 ± 19.7 µM; in series [2] (setting [6]), 84.4 ± 8.47 µM; in series [2] (setting [7]), 79.7 ± 6.78 µM.
For `CC1(C)CC[C@]2(C(=O)Nc3ccncc3)CC[C@]3(C)C(=CCC4[C@@]5(C)CC[C@H](OC(=O)CCC/C=C\CC/C=C\CCCC(=O)O)C(C)(C)C5CC[C@]43C)C2C1` (stereo partly shown) [compound 9g], in that order: 80.4 ± 7.86 µM, 223 ± 21.8 µM, 72.1 ± 6.39 µM and 61.2 ± 6.48 µM.
`CC(=O)O[C@H]1CC[C@@]2(C)C(CC[C@]3(C)C2CC=C2C4CC(C)(C)CC[C@]4(C(=O)Nc4nccs4)CC[C@]23C)C1(C)C` (stereo partly shown) [compound 7f]: the CC50 at 24 h in series [1] is 152 ± 14.1 µM; in series [2] (setting [5]), 494 ± 42.2 µM; in series [2] (setting [6]) it was 144 ± 12.8 µM; in series [2] (setting [7]), 132 ± 12.9 µM.
For `CC(NC(=O)[C@]12CCC(C)(C)CC1C1=CCC3[C@@]4(C)CC[C@H](O)C(C)(C)C4CC[C@@]3(C)[C@]1(C)CC2)C12CC3CC(CC(C3)C1)C2` (stereo partly shown) [compound 8d], in that order: 110 ± 11.6 µM, 398 ± 37.6 µM, 93.8 ± 8.91 µM and 58.1 ± 6.26 µM.
For `CC(=O)O[C@H]1CC[C@@]2(C)C(CC[C@]3(C)C2CC=C2C4CC(C)(C)CC[C@]4(C(=O)NC45CC6CC(CC(C6)C4)C5)CC[C@]23C)C1(C)C` (stereo partly shown) [compound 7c], the CC50 at 24 h stood at 121 ± 11.8 µM in series [1], 366 ± 34.7 µM in series [2] (setting [5]), 104 ± 10.6 µM in series [2] (setting [6]) and 98.9 ± 9.54 µM in series [2] (setting [7]).
The corresponding values for `CC1(C)CC[C@]2(C(=O)Nc3ccncc3)CC[C@]3(C)C(=CCC4[C@@]5(C)CC[C@H](O)C(C)(C)C5CC[C@]43C)C2C1` (stereo partly shown) [compound 8g] are 160 ± 14.3 µM, 443 ± 40.3 µM, 137 ± 12.4 µM and 135 ± 12.8 µM.
As for `CC1(C)CC[C@]2(C(=O)Nc3cccc4cccnc34)CC[C@]3(C)C(=CCC4[C@@]5(C)CC[C@H](OC(=O)CCC/C=C\CC/C=C\CCCC(=O)O)C(C)(C)C5CC[C@]43C)C2C1` (stereo partly shown) [compound 9i], the CC50 at 24 h in series [1] stood at 84.7 ± 8.21 µM; in series [2] (setting [5]), 262 ± 22.7 µM; in series [2] (setting [6]), 77.3 ± 6.85 µM; in series [2] (setting [7]), 62.9 ± 5.91 µM.

As usually defined, the CC50 is the concentration that lowers cell viability or growth by half. A higher CC50 goes with lower toxicity to the cells.
